Assay results from patent US20030104007A1, “Pseudopterosin compounds of Symbiodinium spp isolated from Pseudopterogorgia elisabethae” (priority 2001, published 2003).

Key:
[1] = system: PMA-induced mouse ear edema; test: Inhibition of PMA-induced inflammation (edema) of the mouse ear; assay type: in vivo; settings: administered topically
Experimental: A test compound is topically applied in acetone to the inside pinnae of the ears of mice in a solution containing the edema-causing irritant, phorbol 12-myristate 13-acetate (PMA). PMA alone (2 μg/ear) or in combination with the test compound is applied to left ears (5 mice per treatment group) and acetone is applied to all right ears. After 3 hour 20 minute incubation, the mice are euthanized, the ears are removed, and bores are taken and weighed. Edema is measured by subtracting the weight of the right ear (acetone control) from the weight of the left ear (treated). Results are recorded as % decreases (inhibition) or % increase (potentiation) in edema relative to the PMA control group edema. Test compounds are screened at 50 or 25 μg/ear.
This signaling mechanism may be coupled to phagosome formation. The endogenous production of eicosanoids and their role in phagosome formation may be evaluated by using […] as pharmacological probes and analyzing arachidonic acid products by conventional means.

[2] = system: prostaglandin E2 production in zymosan-stimulated murine peritoneal macrophages; test: Prostaglandin E2 production in zymosan-stimulated murine peritoneal macrophages; assay type: cell-based; settings: read-out: IC50, inhibition of prostaglandin E2 production
[3] = system: leukotriene C4 production in zymosan-stimulated murine peritoneal macrophages; test: Leukotriene C4 production in zymosan-stimulated murine peritoneal macrophages; assay type: cell-based; settings: read-out: IC50, inhibition of leukotriene C4 production
Tetrahymena thermophila = Tetrahymena thermophila phagocytic activity (India ink food vacuole formation); assay type: cell-based; settings: read-out: IC50, inhibition of phagocytic activity
Experimental: In Tetrahymena thermophila, PsA and elisabethadione were potent inhibitors of phagocytic activity with IC50 of 0.4 and 0.1 μM, respectively. A test compound may be assayed as follows. Log-phase Tetrahymena thermophila cultures are grown in 2% proteose peptone, 0.1% glucose at 25° C. A volume comprising 1×10^7 cells are centrifuged at 450 g for 5 minutes. The pellet is washed and resuspended in 3.15 ml of 50 mM TRIS-HCl buffer at pH 7.7. The test compound is prepared at a desired concentration in 0.4 ml volumes. For control samples, 0.4 ml of buffer is used. 0.45 ml of diluted India ink (1:25, v:v) is added to each drug preparation. At t=0, the drug/ink mixture is added to the Tetrahymena cells, and at t=10 min., […] samples of cell suspension are removed and fixed in 10% formaldehyde. At least 100 random cells from each sample are then examined in a light microscope. Phagocytic activity is assessed by calculating the ratio of cells with food vacuoles compared to the cells with no food vacuoles.

IC50 [2]	IC50 [3]	Structure (SMILES)	ED50, reducing PMA-induced mouse ear edema [1]	IC50 (Tetrahymena thermophila)
4 µM	1 µM	CC(C)=C[C@H]1C[C@H](C)[C@H]2CC[C@H](C)c3c(O[C@@H]4OC[C@@H](O)[C@H](O)[C@H]4O)c(O)c(C)c1c32 [PsA, Pseudopterosin A]	8 μg/ear	0.4 µM
		CC(C)=C[C@H]1C[C@H](C)[C@H]2CC[C@H](C)c3c(O)c(O[C@@H]4O[C@@H](C)[C@@H](O)[C@@H](O)[C@@H]4O)c(C)c1c32 [PsE, Pseudopterosin E]	38 μg/ear	
		CC(C)=CCC[C@H](C)[C@H]1CC[C@H](C)C2=C1C(=O)C(C)=C(O)C2=O [elisabethadione]		0.1 µM
